Source: article PMC5688156, “The natural product carolacton inhibits folate-dependent C1 metabolism by targeting FolD/MTHFD” (Nature Communications, 2017)

What was measured:
ecFolD Q98H = molecular target: T1, ecFolD Q98H (Escherichia coli, UniProt P24186, Q98H); experiment: SPR binding to ecFolD Q98H; parameters: species or system E. coli
T1 construct: His-tag (TEV-cleavable, vector pHis-TEV); made in house; host or cells: E. coli BL21 (DE3)
Protocol: All surface plasmon resonance (SPR) experiments described in this study were performed on a Biacore X100 system. Different FolDs with or without His-tag were coupled on CM5 sensor chips (GE Healthcare) by the amine coupling method using a kit from GE Healthcare Life Sciences (Freiburg, Germany). A pH scouting process was performed before protein immobilization to test the most appropriate buffer and the protein concentration for protein coupling. Finally, 20 μg/mL of ecFolD in 10 mM maleate buffer (pH 6.8), 30 μg/mL of ecFolD Q98H in 10 mM maleate buffer (pH 6.3), 40 μg/mL of ecFolD K54N in 10 mM maleate buffer (pH 5.8), 20 μg/mL of spFolD in 10 mM maleate buffer (pH 6.0) and 15 μg/mL of MTHFD2 (His-tag cleaved) in 10 mM maleate buffer (pH 6.8) were used for coupling. In the protein immobilization procedure, the contact time was calculated based on the pH scouting results to achieve ~3000–5000 relative resonance units (RU). The buffer used in the SPR assays was 1× HBS-P buffer (10 mM HEPES pH 7.4, 150 mM NaCl, 0.05% Tween 20). The 1 mM stock solution of carolacton was prepared in 1× HBS-P buffer and diluted to different concentration ranges by two-fold serial dilution. In the SPR assay, the association time was 180 s and the dissociation time was 600 s. Data analysis was performed using the Biacore evaluation software. […]

KB-V.1 = experiment: Cytotoxicity screening, KB-V.1 (MTT); format: cell-based, human; conditions: for EC50: MDR (Pgp-overexpressing) cell line, 5 d treatment, MTT
Protocol: Half maximal effective concentrations (EC50) on human cancer cell lines were determined as described elsewhere. Human cancer cell lines were maintained as recommended by the depositor (German Collection of Microorganisms and Cell Cultures, DSMZ) and were treated for 5 d with carolacton in serial dilution. The viability of adherent cell types, HCT-116 (ACC 581), KB-3.1 (ACC-158) and KB-V.1 (ACC-149) was assessed by the addition of MTT tetrazolium salt and absorbance measurement at 570 nm. Histiocytic lymphoma U-937 cells (ACC-5) were maintained in RPMI 1640 medium and transferred into folate-free medium prior to the assay. Cell viability was determined by measuring alamar blue fluorescence emission at 590 nm. The values were referenced and EC50 values were determined by sigmoidal curve fitting. The cell lines KB-3.1 and KB-V.1 are originally derived from HeLa, whereas the latter is an MDR subclone of KB-3.1. They were used to directly compare the activity of carolacton on an mdr1 overexpressing and a sensitive cell line.

Compound: CO[C@H](CC(=O)O)[C@@H](C)C(=O)[C@H](C)/C=C(\C)[C@H]1OC(=O)[C@H](O)[C@H](O)/C=C/[C@H](C)CCC[C@@H]1C [carolacton]
- Kd (ecFolD Q98H): 20 µM
- koff (ecFolD Q98H): 0.608 s⁻¹
- EC50 (KB-V.1; Homo sapiens, KB-V1, 120 h): 42 µM
- EC50 (KB-V.1): 41.8 ± 14.5 µM
- Maximum inhibition (KB-V.1; inhibition of cell growth, 5 d): >80%
